Laboratory results taken from publication PMC6624297 (Cell Death & Disease, 2019).

How the values were obtained:
[1] = tested on: MDA-MB-231 cells; assay: MTT assay MDA-MB-231; format: cell-based; details: Homo sapiens, 24h of treatment, mean ± SD
Protocol: Details are given in Supplementary Materials and Methods. Using probability unit and weighted regression method to calculate the IC50 value of compounds.
Total cells in the logarithmic growth phase were collected, digested using 0.25% pancreatic enzymes, and then diluted into single-cell suspensions using phosphate-buffered solution (PBS). These cells were seeded into 96-well plates at 4× 10^3-5× 10^3 cells per well (100 µL per well) and then A549, H460, OVCAR-3, SGC7901, MDA-MB-231, HCT116 and HepG2 were cultured at 37°Cin an incubator containing 5% CO2. After cell complete attachment, 100 µL of different concentrations of compounds (0.625 μM, 1.25 μM, 2.5μM, 5 μM, 10 μM) were added to the cells after the nutrient solution in each well was discarded, while no compound except 0.1% DMSO was added to cells in the control group; at the same time, each concentration was set up to 5 wells. In addition, 5 wells in each 96-well plate only received 100 µL of nutrient solution as a blank control. The plates were taken out after the cells were incubated with compounds for 24 h, and 20 µL of MTT solution (5 mg/mL) (Wuhan Boster Biotechnology Limited Company, Wuhan, China; item No. AR1156) was added into all the wells. After another time of incubation for 4 h at 37 °C, the nutrient solution in each well was discarded slowly, and 150 µL of DMSO was added to each well. The plates were shaken on a shaking table for 20 min. When the crystals were fully dissolved, the blank wells were used to zero the plate reader. The optical density (OD) of each well was detected at 490 nm. The IC50 value was determined as the concentration of the inhibitor that caused 50% inhibition. Using probability unit and weighted regression method to calculate the IC50 value of compounds.

[2] = tested on: A549 cells; assay: Annexin V/PI staining flow cytometry, A549; format: cell-based, human; details: 24 h
Protocol: The density of the A549 cells and H460 in the logarithmic growth phase was adjusted to 1 × 10^6 cells/mL, and a total of 1 mL of cell suspension and 1 mL of L14e at different concentrations were added into each well with the final compound L14e concentration in each group as 0, 0.5, 1.0, and 1.5 μM. Details are given in Supplementary Materials and Methods.
The density of the A549 cells and H460 in the logarithmic growth phase was adjusted to 1 × 10^6 cells/mL, and then the cell suspension was seeded into a 6-well plate (Becton Dickinson and Company, USA). A total of 1 mL of cell suspension and 1 mL of compound L14e at different concentrations were added into each well with the final compound L14e concentration in each group as 0 μM, 0.5 μM, 1.0 μM, and 1.5μM. After cells were incubated for 24 h at 37 °C, 1 mL of cell suspension per well was collected and centrifuged at 1000 r/min for 10 min at 4°C, and the supernatant was removed. Then, 1 mL of cold PBS was added to the cell pellet, and was shaken lightly to re-suspend the cells. The cells were centrifuged at 1000 r/min at 4 °C for 10 min, and the supernatant was removed. These steps were repeated twice. The cells were re-suspended in 150µL of PBS, 10 µL of fluorescein isothiocyanate (FITC)-labeled Annexin V (Annexin V-FITC) (Promega Corporation, USA) and 5 µL of PI (Promega Corporation, USA) were added. The mixture was gently mixed and incubated in the dark at room temperature for 10 min then stained cells were analyzed using flow cytometry to test the levels of apoptotic cells (Becton Dickinson and Company, USA; FACS Calibur).

[3] = tested on: H460 cells; assay: Transwell migration and wound healing, H460; format: cell-based, human; details: H460, 0.5, 1.0, 1.5 μM, 24 h
Protocol: Cell migration ability was measured using transwell chambers (8-μm pore size; Corning Costar, Cambridge, MA, USA). For the transwell assay, A549 and H460 cells suspended in serum-free RPMI-1640 medium containing different concentrations of L14e (0, 0.5, 1.0, and 1.5 μM) were seeded into the upper chamber. The lower chamber contained RPMI-1640 medium supplemented with 20% serum. After 24 h incubation, the filters were fixed in methanol and stained with 0.1% crystal violet. The upper faces of the filters were gently abraded, and the lower faces with cells migrated across the filters were imaged and counted under the microscope. For wound healing assays, cells were placed into 6-well plates and cultured until 100% confluence. An artificial scratch was created using a 200 μL pipette tip. Add serum-free RPMI-1640 medium containing different concentrations of drugs. At 24 h after culturing in serum-free medium, wound closure images were captured in the same field under magnification. Cell healing rates were calculated by the fraction of cell coverage across the line. These experiments were performed in triplicate and repeated three times.

O=C(Nc1cccc(Cl)c1)Nc1ccccc1NS(=O)(=O)c1c[nH]c(=O)[nH]c1=O [Compound L14e, N'-(3-chlorophenyl)-2-(2,4-dihydroxypyrimidine-5-sulfonamido)phenyl urea]
IC50 [1]: 2600 ± 80 nM
apoptotic rate ([2]; A549, 0.5 μM): 19.3%
late apoptosis rate (Q2, Annexin V [+] PI [+]) ([2]; A549, 0.5 μM): 17.7%
late apoptosis rate (Q2, Annexin V [+] PI [+]) ([2]; A549, 1.0 μM): 27.5%
apoptotic rate ([2]; A549, 1.5 μM): 43.5%
late apoptosis rate (Q2, Annexin V [+] PI [+]) ([2]; A549, 1.5 μM): 37.1%
effect on cell migration [3]: significantly inhibited the migration
